# In patent US20260262643A1, “HERBICIDAL BENZOXAZINES” (FMC CORPORATION, priority 2022, published 2026):
# How the values were obtained:
# barnyardgrass [1] = test: Test C preemergence; assay type: in vivo, Echinochloa crusgalli; details: for Barnyardgrass plant response rating: preemergence, 0 to 100 scale (0 no effect, 100 complete control)
# In short: (§1)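 Greenhouse herbicide screen, 10-day duration. Test chemicals in solvent/surfactant blend were sprayed onto soil at sowing (pre) or onto 2–10 cm seedlings at one to two leaves (post); injury scored visually against controls, 0 no effect to 100 complete control.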
# blackgrass [2] = test: Test C preemergence; assay type: in vivo, Alopecurus myosuroides; details: for Blackgrass plant response rating: preemergence, 0 to 100 scale (0 no effect, 100 complete control)
# In short: as §1
# corn [3] = test: Test C preemergence; assay type: in vivo, Zea mays; details: for Corn plant response rating: preemergence, 0 to 100 scale (0 no effect, 100 complete control)
# In short: as §1
# green foxtail [4] = test: Test C preemergence; assay type: in vivo, Setaria viridis; details: for Foxtail, Green plant response rating: preemergence, 0 to 100 scale (0 no effect, 100 complete control)
# In short: as §1
# kochia [5] = test: Test C preemergence; assay type: in vivo, Bassia scoparia; details: for Kochia plant response rating: preemergence, 0 to 100 scale (0 no effect, 100 complete control)
# In short: as §1
# oat, wild [6] = test: Test C preemergence; assay type: in vivo, Avena fatua; details: for Oat, Wild plant response rating: preemergence, 0 to 100 scale (0 no effect, 100 complete control)
# From the text: (§2) Seeds of plant species selected from barnyardgrass (Echinochloa crusgalli), blackgrass (Alopecurus myosuroides), corn (Zea mays), foxtail, giant (giant foxtail, Setaria faberi), green foxtail (Setaria viridis), goosegrass (Eleusine indica), kochia (Bassia scoparia), oat, wild (wild oat, Avena fatua), pigweed, palmer (palmer amaranth, palmer pigweed, Amaranthus palmeri), Pigweed, Redroot (redroot pigweed, Amaranthus retroflexus), ragweed (common ragweed, Ambrosia artemisiifolia), ryegrass, Italian ([…] ryegrass, Lolium multiflorum), soybean (Glycine max), and wheat (Triticum aestivum) were planted into a blend of loam soil and sand and treated preemergence with a directed soil spray using test chemicals formulated in a non-phytotoxic solvent mixture which included a surfactant. At the same time, plants selected from these crops and weed species and also galium (catchweed bedstraw, Galium aparine) and horseweed (Erigeron canadensis) were planted in pots containing the same blend of loam soil and sand and treated with postemergence applications of test chemicals formulated in the same manner. Plants ranged in height from 2 to 10 cm and were in the one- to two-leaf stage for the postemergence treatment. Treated plants and untreated controls were maintained in a greenhouse for 10 days, after which time all treated plants were compared to untreated controls and visually evaluated for injury. Plant response ratings, summarized in Table C, are based on a 0 to 100 scale where 0 is no effect and 100 is complete control. A dash (-) response means no test result.
# pigweed, palmer [7] = test: Test C preemergence; assay type: in vivo, Amaranthus palmeri; details: for Pigweed, Palmer plant response rating: preemergence, 0 to 100 scale (0 no effect, 100 complete control)
# In short: as §1
# ragweed [8] = test: Test C preemergence; assay type: in vivo, Ambrosia artemisiifolia; details: for Ragweed plant response rating: preemergence, 0 to 100 scale (0 no effect, 100 complete control)
# In short: as §1
# ryegrass, Italian [9] = test: Test C preemergence; assay type: in vivo, Lolium multiflorum; details: for Ryegrass, Italian plant response rating: preemergence, 0 to 100 scale (0 no effect, 100 complete control)
# In short: as §1
# soybean [10] = test: Test C preemergence; assay type: in vivo, Glycine max; details: for Soybean plant response rating: preemergence, 0 to 100 scale (0 no effect, 100 complete control)
# From the text: as §2
# wheat [11] = test: Test C preemergence; assay type: in vivo, Triticum aestivum; details: for Wheat plant response rating: preemergence, 0 to 100 scale (0 no effect, 100 complete control)
# From the text: as §2
# barnyardgrass [12] = test: Test C postemergence; assay type: in vivo, Echinochloa crusgalli; details: 10 days, 0 to 100 scale (0 no effect, 100 complete control)
# In short: as §1
# blackgrass [13] = test: Test C postemergence; assay type: in vivo, Alopecurus myosuroides; details: 10 days, 0 to 100 scale (0 no effect, 100 complete control)
# In short: as §1
# corn [14] = test: Test C postemergence; assay type: in vivo, Zea mays; details: 10 days, 0 to 100 scale (0 no effect, 100 complete control)
# In short: as §1
# green foxtail [15] = test: Test C postemergence; assay type: in vivo, Setaria viridis; details: 10 days, 0 to 100 scale (0 no effect, 100 complete control)
# In short: as §1
# kochia [16] = test: Test C postemergence; assay type: in vivo, Bassia scoparia; details: 10 days, 0 to 100 scale (0 no effect, 100 complete control)
# In short: as §1
# oat, wild [17] = test: Test C postemergence; assay type: in vivo, Avena fatua; details: 10 days, 0 to 100 scale (0 no effect, 100 complete control)
# From the text: as §2
# pigweed, palmer [18] = test: Test C postemergence; assay type: in vivo, Amaranthus palmeri; details: 10 days, 0 to 100 scale (0 no effect, 100 complete control)
# In short: as §1
# ragweed [19] = test: Test C postemergence; assay type: in vivo, Ambrosia artemisiifolia; details: 10 days, 0 to 100 scale (0 no effect, 100 complete control)
# In short: as §1
# ryegrass, Italian [20] = test: Test C postemergence; assay type: in vivo, Lolium multiflorum; details: 10 days, 0 to 100 scale (0 no effect, 100 complete control)
# In short: as §1
# soybean [21] = test: Test C postemergence; assay type: in vivo, Glycine max; details: 10 days, 0 to 100 scale (0 no effect, 100 complete control)
# From the text: as §2
# wheat [22] = test: Test C postemergence; assay type: in vivo, Triticum aestivum; details: 10 days, 0 to 100 scale (0 no effect, 100 complete control)
# From the text: as §2
# galium = test: Test C postemergence; assay type: in vivo, Galium aparine; details: 10 days, 0 to 100 scale (0 no effect, 100 complete control)
# In short: as §1
# horseweed = test: Test C postemergence; assay type: in vivo, Erigeron canadensis; details: 10 days, 0 to 100 scale (0 no effect, 100 complete control)
# In short: as §1
# [23] = Preemergence, 125 g ai/ha, 0 to 100 scale, 0 no effect, 100 complete control
smiles,measurement,setting,value
CC(C)c1ncn(-c2ccc(S(C)(=O)=O)c(C(=O)N3C[C@H](C)Oc4c(Cl)cccc43)c2)n1 [Compound 393],Barnyardgrass plant response rating,barnyardgrass [1]; 500 g ai/ha,70
same,"Plant response rating, Barnyardgrass",barnyardgrass [1]; [23],40
same,Blackgrass plant response rating,blackgrass [2]; 500 g ai/ha,20
same,"Plant response rating, Blackgrass",blackgrass [2]; [23],20
same,Corn plant response rating,corn [3]; 500 g ai/ha,20
same,"Plant response rating, Corn",corn [3]; [23],0
same,"Foxtail, Green plant response rating",green foxtail [4]; 500 g ai/ha,100
same,"Plant response rating, Foxtail, Green",green foxtail [4]; [23],80
same,Kochia plant response rating,kochia [5]; 500 g ai/ha,90
same,"Plant response rating, Kochia",kochia [5]; [23],80
same,"Oat, Wild plant response rating","oat, wild [6]; 500 g ai/ha",40
same,"Plant response rating, Oat, Wild","oat, wild [6]; [23]",0
same,"Pigweed, Palmer plant response rating","pigweed, palmer [7]; 500 g ai/ha",100
same,"Plant response rating, Pigweed, Palmer","pigweed, palmer [7]; [23]",80
same,Ragweed plant response rating,ragweed [8]; 500 g ai/ha,0
same,"Plant response rating, Ragweed",ragweed [8]; [23],0
same,"Ryegrass, Italian plant response rating","ryegrass, Italian [9]; 500 g ai/ha",90
same,"Plant response rating, Ryegrass, Italian","ryegrass, Italian [9]; [23]",0
same,Soybean plant response rating,soybean [10]; 500 g ai/ha,40
same,"Plant response rating, Soybean",soybean [10]; [23],20
same,Wheat plant response rating,wheat [11]; 500 g ai/ha,30
same,"Plant response rating, Wheat",wheat [11]; [23],0
same,"Plant response rating, Barnyardgrass","barnyardgrass [12]; 500 g ai/ha, postemergence",50
same,"Plant response rating, Barnyardgrass","barnyardgrass [12]; Postemergence, 125 g ai/ha",30
same,"Plant response rating, Blackgrass","blackgrass [13]; 500 g ai/ha, postemergence",0
same,"Plant response rating, Blackgrass","blackgrass [13]; Postemergence, 125 g ai/ha",0
same,"Plant response rating, Corn","corn [14]; 500 g ai/ha, postemergence",50
same,"Plant response rating, Corn","corn [14]; Postemergence, 125 g ai/ha",20
same,"Plant response rating, Foxtail, Green","green foxtail [15]; 500 g ai/ha, postemergence",70
same,"Plant response rating, Foxtail, Green","green foxtail [15]; Postemergence, 125 g ai/ha",10
same,"Plant response rating, Kochia","kochia [16]; 500 g ai/ha, postemergence",90
same,"Plant response rating, Kochia","kochia [16]; Postemergence, 125 g ai/ha",70
same,"Plant response rating, Oat, Wild","oat, wild [17]; 500 g ai/ha, postemergence",40
same,"Plant response rating, Oat, Wild","oat, wild [17]; Postemergence, 125 g ai/ha",0
same,"Plant response rating, Pigweed, Palmer","pigweed, palmer [18]; 500 g ai/ha, postemergence",90
same,"Plant response rating, Pigweed, Palmer","pigweed, palmer [18]; Postemergence, 125 g ai/ha",60
same,"Plant response rating, Ragweed","ragweed [19]; 500 g ai/ha, postemergence",70
same,"Plant response rating, Ragweed","ragweed [19]; Postemergence, 125 g ai/ha",60
same,"Plant response rating, Ryegrass, Italian","ryegrass, Italian [20]; 500 g ai/ha, postemergence",80
same,"Plant response rating, Ryegrass, Italian","ryegrass, Italian [20]; Postemergence, 125 g ai/ha",10
same,"Plant response rating, Soybean","soybean [21]; 500 g ai/ha, postemergence",100
same,"Plant response rating, Soybean","soybean [21]; Postemergence, 125 g ai/ha",70
same,"Plant response rating, Wheat","wheat [22]; 500 g ai/ha, postemergence",20
same,"Plant response rating, Wheat","wheat [22]; Postemergence, 125 g ai/ha",10
same,"Plant response rating, Galium","galium; 500 g ai/ha, postemergence",100
same,"Plant response rating, Galium","galium; Postemergence, 125 g ai/ha",70
same,"Plant response rating, Horseweed","horseweed; 500 g ai/ha, postemergence",20
same,"Plant response rating, Horseweed","horseweed; Postemergence, 125 g ai/ha",0
CC(C)c1ncn(-c2cc(C(=O)N3C[C@H](C)Oc4c(Cl)cccc43)cnn2)n1 [Compound 305],Barnyardgrass plant response rating,barnyardgrass [1]; 500 g ai/ha,100
same,Barnyardgrass plant response rating,"barnyardgrass [1]; Test C, 125 g ai/ha",70
same,Blackgrass plant response rating,blackgrass [2]; 500 g ai/ha,90
same,Blackgrass plant response rating,"blackgrass [2]; Test C, 125 g ai/ha",50
same,Corn plant response rating,corn [3]; 500 g ai/ha,30
same,Corn plant response rating,"corn [3]; Test C, 125 g ai/ha",0
same,"Foxtail, Green plant response rating",green foxtail [4]; 500 g ai/ha,100
same,"Foxtail, Green plant response rating","green foxtail [4]; Test C, 125 g ai/ha",100
same,Kochia plant response rating,kochia [5]; 500 g ai/ha,100
same,Kochia plant response rating,"kochia [5]; Test C, 125 g ai/ha",80
same,"Oat, Wild plant response rating","oat, wild [6]; 500 g ai/ha",80
same,"Oat, Wild plant response rating","oat, wild [6]; Test C, 125 g ai/ha",20
same,"Pigweed, Palmer plant response rating","pigweed, palmer [7]; 500 g ai/ha",100
same,"Pigweed, Palmer plant response rating","pigweed, palmer [7]; Test C, 125 g ai/ha",80
same,Ragweed plant response rating,ragweed [8]; 500 g ai/ha,90
same,Ragweed plant response rating,"ragweed [8]; Test C, 125 g ai/ha",70
same,"Ryegrass, Italian plant response rating","ryegrass, Italian [9]; 500 g ai/ha",90
same,"Ryegrass, Italian plant response rating","ryegrass, Italian [9]; Test C, 125 g ai/ha",60
same,Soybean plant response rating,soybean [10]; 500 g ai/ha,90
same,Soybean plant response rating,"soybean [10]; Test C, 125 g ai/ha",0
same,Wheat plant response rating,wheat [11]; 500 g ai/ha,70
same,Wheat plant response rating,"wheat [11]; Test C, 125 g ai/ha",0
same,"Plant response rating, Barnyardgrass","barnyardgrass [12]; 500 g ai/ha, postemergence",90
same,"Plant response rating, Barnyardgrass","barnyardgrass [12]; Postemergence, 125 g ai/ha",30
same,"Plant response rating, Blackgrass","blackgrass [13]; 500 g ai/ha, postemergence",90
same,"Plant response rating, Blackgrass","blackgrass [13]; Postemergence, 125 g ai/ha",40
same,"Plant response rating, Corn","corn [14]; 500 g ai/ha, postemergence",90
same,"Plant response rating, Corn","corn [14]; Postemergence, 125 g ai/ha",10
same,"Plant response rating, Foxtail, Green","green foxtail [15]; 500 g ai/ha, postemergence",90
same,"Plant response rating, Foxtail, Green","green foxtail [15]; Postemergence, 125 g ai/ha",50
same,"Plant response rating, Kochia","kochia [16]; 500 g ai/ha, postemergence",80
same,"Plant response rating, Kochia","kochia [16]; Postemergence, 125 g ai/ha",50
same,"Plant response rating, Oat, Wild","oat, wild [17]; 500 g ai/ha, postemergence",60
same,"Plant response rating, Oat, Wild","oat, wild [17]; Postemergence, 125 g ai/ha",30
same,"Plant response rating, Pigweed, Palmer","pigweed, palmer [18]; 500 g ai/ha, postemergence",80
same,"Plant response rating, Pigweed, Palmer","pigweed, palmer [18]; Postemergence, 125 g ai/ha",30
same,"Plant response rating, Ragweed","ragweed [19]; 500 g ai/ha, postemergence",80
same,"Plant response rating, Ragweed","ragweed [19]; Postemergence, 125 g ai/ha",70
same,"Plant response rating, Ryegrass, Italian","ryegrass, Italian [20]; 500 g ai/ha, postemergence",60
same,"Plant response rating, Ryegrass, Italian","ryegrass, Italian [20]; Postemergence, 125 g ai/ha",30
same,"Plant response rating, Soybean","soybean [21]; 500 g ai/ha, postemergence",100
same,"Plant response rating, Soybean","soybean [21]; Postemergence, 125 g ai/ha",100
same,"Plant response rating, Wheat","wheat [22]; 500 g ai/ha, postemergence",90
same,"Plant response rating, Wheat","wheat [22]; Postemergence, 125 g ai/ha",40
same,"Plant response rating, Galium","galium; 500 g ai/ha, postemergence",100
same,"Plant response rating, Galium","galium; Postemergence, 125 g ai/ha",100
same,"Plant response rating, Horseweed","horseweed; 500 g ai/ha, postemergence",100
same,"Plant response rating, Horseweed","horseweed; Postemergence, 125 g ai/ha",30
